Assay results reported in PMC3479139, “Diverse Small Molecule Inhibitors of Human Apurinic/Apyrimidinic Endonuclease APE1 Identified from a Screen of a Large Public Collection” (PLoS ONE, 2012).
pIC50: −log10 of the molar value.

Experiments:
[1] = molecular target: T1, APE1 (Homo sapiens, UniProt P27695); assay: Fluorescence polarization (FP) displacement assay of APE1 binding to AP-DNA probe; conditions: read-out: FP IC50;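 further: TAMRA 5′-labeled duplex DNA with THF abasic site (5 nM) and APE1 (20 nM), Mg2+-free buffer, 15 min at room temperature, inhibition seen as lowered polarization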
T1 construct: made in house
T1 sequence (P27695 whole entry): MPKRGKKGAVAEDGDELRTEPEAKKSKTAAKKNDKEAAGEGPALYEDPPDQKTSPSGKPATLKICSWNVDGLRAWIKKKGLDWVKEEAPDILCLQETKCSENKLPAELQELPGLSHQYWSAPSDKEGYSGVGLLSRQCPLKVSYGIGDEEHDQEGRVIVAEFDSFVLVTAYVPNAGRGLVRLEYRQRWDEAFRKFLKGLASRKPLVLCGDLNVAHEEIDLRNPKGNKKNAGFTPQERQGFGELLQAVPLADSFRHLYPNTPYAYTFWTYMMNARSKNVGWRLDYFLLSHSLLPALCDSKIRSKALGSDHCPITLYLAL
Procedure: Double-stranded oligodeoxynucleotide containing tetrahydrofuran (THF) abasic site labeled with TAMRA at the 5′-end was used as the labeled binding probe. Inhibition of APE1 binding to labeled probe was detected by a decrease in the fluorescence polarization (FP) of the fluorophore. Briefly, 4 µL mixture of 20 nM APE1 and 5 nM probe contained in the enzymatic assay buffer from which Mg^2+ was omitted, was dispensed into 1536-well Greiner black solid bottom plates. Compounds (23 nL) were transferred via pintool, and after a 15-minute incubation at room temperature, fluorescence polarization was measured in a ViewLux High-throughput CCD imager (480 nm excitation and 540 nm emission) to determine the degree of probe displacement caused by the test compounds.

[2] = molecular target: T2, E. coli Endo IV (Escherichia coli, UniProt P0A6C1); assay: E. coli Endo IV profiling counterscreen; format: biochemical; conditions: for pIC50: read-out: EndoIV IC50;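 on all read-outs here: selectivity counterscreen of candidate APE1 inhibitors against the bacterial endonuclease Endo IV, run in the same assay format as the primary APE1 high-throughput screen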
T2 construct: made in house
Source text: In order to screen out nonselective compounds, such as non-specific DNA binders and inhibitors of related enzymes, we used a miniaturized ThO DNA displacement assay and a counterscreen against the bacterial endonuclease E. coli Endo IV, respectively, following the previously published protocols [21].
To probe the selectivity of the candidate APE1 inhibitors, we tested them against E. coli EndoIV [36], employing the same assay as used in the HTS.

[3] = molecular target: double-stranded 17-mer DNA fragment; assay: ThO (Thiazole Orange) DNA displacement assay; format: binding; conditions: read-out: ThO-DNA binding IC50;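 further: miniaturized displacement of the intercalating dye from unlabeled duplex DNA, used to flag nonspecific DNA binders, chiefly intercalators, groove binders may be missed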
[4] = molecular target: T1, APE1; assay: Gel-based APE1 incision assay with fluorescence (TAMRA) detection; format: biochemical
Procedure: To test the compounds’ inhibitory activity after the primary screen, two assays designed to monitor the cleavage of substrate to product through electrophoretic separation were utilized. The radiotracer incision assay, utilizing a ^32P-labeled substrate, was performed essentially as described [21], [31], [32]. Incision reactions utilizing ^32P-labeled substrate were carried out for 5 min at 37°C. After the addition of an equal volume of stop buffer (0.05% bromophenol blue and xylene cyanol, 20 mM EDTA, 95% formamide), the substrate and product were separated on a standard polyacrylamide denaturing gel and quantified by PhosphorImager analysis [32]. […] APE1 cleavage of the substrate results in a 18-mer TAMRA-labeled fragment which was separated by a non-denaturing polyacrylamide gel electrophoresis and quantitated in a Gel Doc XR imaging system, BioRad (Hercules, CA). The advantage of this assay is that it can be used in a relatively high throughput mode with the inhibitors tested at a range of concentrations (0.17 µM to 125 µM was used here). APE1 (0.15 nM) was added to a reaction mixture of 20 µL containing assay buffer (40 mM HEPES pH 7.5, 50 mM NaCl, 1 mM MgCl2 and 2 mM DTT), and labeled ds DNA substrate (final 75 nM). The mixture was incubated at RT for 15 min, and the reaction was stopped by the addition 20 µL of 2X dye stop solution (10% glycerol, 20 mM EDTA and bromophenol blue). Then 10 µL of the mixture was resolved on 20% polyacrylamide gel in 1X Tris-borate EDTA running buffer at 250 V for 40 min.
To eliminate false positive hits, all 595 confirmed molecules were tested for their ability to inhibit APE1 incision activity using biochemical assays that involve electrophoretic separation of the substrate and cleavage product.

[5] = molecular target: T1, APE1; assay: Fluorogenic kinetic qHTS APE1 incision assay (primary screen and retest of cherrypicked samples); format: biochemical;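 further: purified APE1 cleaving a fluorophore/dark-quencher labelled 17-mer duplex DNA bearing a tetrahydrofuran AP site, fluorescence rise followed kinetically over the first 2 min, inhibition normalized to controls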
Procedure: All screening operations were performed on a fully integrated robotic system (Kalypsys, San Diego, CA) [28] with library plates screened proceeding from the lowest to the highest concentration to minimize compound carryover [26]. Vehicle-only plates, with DMSO being pin-transferred to the entire column 5–48 compound area, were included regularly throughout the screen in order to record any systematic shifts in assay signal. During the screen, reagent bottles were kept at 4°C and all liquid lines were covered with aluminum foil to minimize degradation.
Screening data were corrected and normalized, and concentration–effect relationships was derived using in-house developed algorithms [25].
To screen for inhibitors of APE1 incision activity, we employed a purified-enzyme biochemical assay with a model substrate featuring a red-shifted fluorescent reporter in combination with a dark non-emitting quencher. These moieties were incorporated as end labels onto a 17-mer double-stranded DNA fragment containing a centrally-located tetrahydrofuran AP site sugar mimetic, which serves as the APE1 cleavage site. Upon APE1-catalyzed strand scission immediately 5′ to the AP site analog, the shortened oligodeoxynucleotide carrying the fluorescent reporter spontaneously dissociates from the rest of the substrate, leading to an increase in fluorescence due to its spatial separation from the dark quencher (Figure 1A).
Using a high-speed whole-plate fluorescence imager, the assay data for the entire screen was conducted in kinetic mode, with the APE1 incision reaction being monitored over the initial linear time frame of 2 min (Figure 1B). Thus, any inhibition associated with each sample was computed from the alteration in fluorescence intensity over the time-course measurement period, after normalization against the appropriate controls (Figure 1B, inset).

[6] = molecular target: T1, APE1; assay: Gel-based radiotracer (32P) APE1 incision assay; format: biochemical; parameters: concentration or dose not given beside the values; conditions: percent incision shown; entries 1-112;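 further: APE1 incision reactions ran 5 min at 37 °C, with cleaved product and intact substrate resolved electrophoretically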
[7] = entries 113-223: fluorophore detection, estimated IC50, read-out: Gel-based electrophoretic separation assay with fluorophore detection, estimated IC50 (column headed Radiotracer Assay (%Activity))
[8] = initial quantitative high-throughput screen, read-out: APE1 qHTS IC50
[9] = retest of cherrypicked sample, read-out: APE1 Retest IC50
[10] = estimated IC50, fluorophore detection, entries 113-223, read-out: F-PAGE Assay IC50

| Compound | pIC50 [1] | pIC50 [2] | pIC50 [3] | pIC50 [4, 7] | pIC50 [5, 8] | pIC50 [5, 9] | pIC50 [4, 10] | Concentration response against EndoIV [2] | Radiotracer Assay (%Activity) [6] |
| --- | --- | --- | --- | --- | --- | --- | --- | --- | --- |
| CC(C)(C)OC(=O)C[C@@H]1C/C=C\C[C@@H](CC(=O)NCCO)C(=O)N[C@H](Cc2c[nH]c3ccccc23)COC1=O [MLS002320206] | < 4.24 | < 4.24 | < 4.24 | 4.70 | 4.82 | 4.79 |  |  |  |
| NS(=O)(=O)c1ccc(NC(=O)CSc2nnc(NC3CC3)s2)cc1 [MLS002169032] | < 4.24 | < 4.24 | < 4.24 |  | 4.97 | 4.99 | 5.20 |  |  |
| CCNc1nc(NCC)n2c(SCC(=O)Nc3ccccc3C(F)(F)F)nnc2n1 [MLS001234389] | < 4.24 | < 4.24 | < 4.24 | 4.85 | 4.67 | 4.89 |  |  |  |
| O=C(C[C@@H]1C/C=C\C[C@H](NC(=O)OCC2c3ccccc3-c3ccccc32)C(=O)OC[C@@H]2CCCN2C1=O)NCCO [MLS002320455] | < 4.24 | < 4.24 | < 4.24 | 4.65 | 5.02 | 4.99 |  |  |  |
| CCNc1nc(NCC)n2c(SCC(=O)Nc3cccc(F)c3)nnc2n1 [MLS001234358] | 4.74 | 4.44 | < 4.24 | 4.95 | 4.92 | 4.94 | 5.30 |  |  |
| C=CC1=C(C(=O)O)N2C(=O)[C@@H](NC(=O)/C(=N\OCC(=O)O)c3csc(N)n3)[C@H]2SC1 [MLS002222332] | < 4.24 | < 4.24 | < 4.24 |  | 4.92 |  | 5.55 |  |  |
| O=C(Nc1ccc2oc(-c3ccccc3F)nc2c1)c1ccc([N+](=O)[O-])o1 [MLS001194759] | < 4.24 | < 4.24 | 4.99 |  | 5.57 | 5.49 | 5.60 |  |  |
| CN(CC(=O)Nc1c(Cl)cccc1Cl)C(=O)c1cccc(-n2cccc2)c1 [MLS001079471] | 4.99 | < 4.24 | < 4.24 |  | 5.38 | 4.94 | 5.60 |  |  |
| COc1ccc(NC(=O)CN(C)C(=O)c2cc3c(s2)CCC3)cc1 [MLS001081306] | < 4.24 | < 4.24 | 4.39 |  | 5.72 | 5.14 | 7.00 |  |  |
| CCOc1ccc(NC(=O)CN(C)C(=O)C2COc3ccccc3O2)cc1OCC (stereo not shown) [MLS002248300] | < 4.24 | < 4.24 | < 4.24 | 4.70 | 4.67 | 4.49 |  |  |  |
| CCOC(=O)c1ccc2[nH]c(-c3ccc(S(=O)(=O)F)cc3)cc(=O)c2c1 [MLS000737558] | 4.69 | 4.44 | < 4.24 | 4.55 | 4.72 | 4.84 |  |  |  |
| Cc1cccc(NC(=O)CNC(=O)c2cccc(-n3cccc3)c2)c1C [MLS001141795] | < 4.24 | < 4.24 | < 4.24 |  | 5.72 | 5.19 | 5.96 |  |  |
| COc1ccc(OCCOc2ccc(/C=C3\C(=N)N4N=C(C)SC4=NC3=O)cc2)cc1 [MLS001359901] | < 4.24 | < 4.24 | < 4.24 | 5.00 | 5.02 | 5.24 |  |  |  |
| Cc1ccc(C)c(S(=O)(=O)Nc2ccc3oc(C)c(C(=O)O)c3c2)c1 [MLS000948181] | < 4.24 | < 4.24 | < 4.24 |  | 4.87 | 4.69 | 5.55 |  |  |
| CC(C)(C)OC(=O)C[C@@H]1C/C=C\C[C@H](CC(=O)NCCO)C(=O)N2CCC[C@H]2COC1=O [MLS002320191] | < 4.24 | < 4.24 | < 4.24 |  | 5.17 | 4.69 | 5.10 |  |  |
| Cc1coc2c(C)c3oc(=O)c(CCC(=O)N[C@@H](C)C(=O)N[C@@H](Cc4ccccc4)C(=O)O)c(C)c3cc12 [MLS001140219] | < 4.24 | < 4.24 | < 4.24 | 4.70 | 4.87 | 4.74 |  |  |  |
| COc1ccc(NC(=O)COC(=O)c2cc3c(s2)CCC3)cc1 [MLS002159150] | 4.44 | < 4.24 | < 4.24 |  | 5.28 | 4.94 | 5.15 |  |  |
| CCN(CC)c1ccc(C(=C2C=CC(=[N+](CC)Cc3cccc(S(=O)(=O)[O-])c3)C=C2)c2ccc(N(CC)Cc3cccc(S(=O)(=O)O)c3)cc2)cc1 [NCGC00166058] | 4.50 | 4.55 | 4.45 |  | 4.50 | 4.60 |  | complete concentration response curves | 13.4% |
